Source: publication PMC12516379, “Rotamer-Controlled Self-Immolative Linkers Enable Tunable Release of Neurosteroid Oxime Prodrugs” (ACS Medicinal Chemistry Letters, 2025)

Experiments:
[1] = Stability in acetate buffer pH 5.0 at room temperature via HPLC (UV); type: physicochemical
Procedure, shortened: (§1)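 Progesterone prodrugs dissolved at 1 mg/mL in PBS (pH 7.03) or 10 mM acetate buffer (pH 5.0), kept at RT and reinjected over time, HPLC-UV AUC at 254 nm. Percent parent remaining; k from ln(%remaining) vs time, pseudo-first-order t1/2 = 0.693/k; duplicates averaged.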

[2] = PBS stability assay at 37 °C via LC-MS/MS; type: physicochemical; settings: 37 °C; for half-life at 3 µM: pH 7.03, PBS
Experimental: To address this, prodrug stability was further evaluated in human plasma at 37 °C using liquid chromatography–tandem mass spectrometry (LC-MS/MS). For direct comparison, a parallel screen was conducted in PBS under identical conditions (Table ). To prevent premature degradation prior to LC-MS/MS analysis, acetonitrile containing formic acid was used as a quenching solution to acidify and stabilize the prodrugs in vials. […] This limitation in detection, along with the need for a more uniform and broadly applicable assessment across all compounds, prompted us to monitor the formation of the parent oxime as an alternative readout.
Stability experiments in human plasma and PBS were performed via liquid chromatography-tandem mass spectrometry (LC-MS/MS) to determine and compare rate of cleavage of progesterone prodrugs as well as selected allopregnanolone prodrugs (3 µM) when incubated at 37 °C. All experiments were performed in duplicate and results are presented as the average of two experimental replicates.

[3] = Aqueous solubility by visual inspection in acetate buffer (pH 5); settings: sodium acetate buffer, pH 5, aqueous buffer, thermodynamic from solid
Experimental: For the solubility assessment, acetate buffer (pH 5) was selected as the media of choice to ensure prodrug stability during analysis.
High aqueous solubility was determined by visual inspection of 5 mg solid material in 0.5 mL
sodium acetate buffer solution. This media was selected to ensure stability of prodrugs during
dissolution in 50 mg/mL aqueous media.

[4] = Plasma stability assay via LC-MS/MS, mouse plasma; type: in vitro ADME; settings: read-out: t1/2 in mouse plasma (Table S20) (converted)
Experimental: (§2) Building on our observation that rotamer control in the steric series can be modulated by enzymatic stabilization or activation, we next evaluated whether this effect was species dependent. To investigate this, we performed comparative stability studies by incubating select prodrugs (20a, 20b, 20l and 20t; Figure ) in mouse and rat plasma – two of the most commonly used preclinical species in drug development. This approach allowed us to assess the potential influence of species-specific enzymes on rotamer equilibria and, by extension, prodrug activation rates. The self-immolation profiles for the sterically tuned linker series (20a–b) reveal discernible, species-dependent differences prodrug stability. […] While the precise biochemical drivers remain unclear, this observation warrants further investigation beyond the scope of this work.
(§3) 1.2 Stability in Plasma and PBS via LCMS
(§4) Procaine (positive control) was purchased from Sigma-Aldrich. HPLC grade MeCN, MeOH, H2O, and FA were purchased from Fischer Scientific. Human plasma (cat. No. […]- […]
(§5) 0102242) were obtained from BIOIVT. DPBS 1X (no calcium, no magnesium, pH = 7.03) was purchased from Thermo Fischer Scientific. Stock solutions were prepared in 100% DMSO, and suitable dilutions of target analytes were prepared in 0.1% FA /MeCN for method development.
(§6) For PBS assay Gibco® Dulbecco’s phosphate-buffered saline (DPBS 1X, no calcium, no magnesium, pH = 7.03) was utilized. All experiments were performed in duplicate and results are presented as the average of two experimental replicates.
(§7) Procedure for Plasma Stability Assay
(§8) Test compounds and positive control (i.e. procaine) were dissolved in DMSO to make a 10 mM stock solution and subsequently diluted to 500 μM in 50% MeCN and PBS. This intermediate stock solution was prepared and added immediately prior to the start of each test compound experiment. Plasma was thawed at ambient temperature and aliquoted (663.0 μL) into 1.5 mL Eppendorf tubes. Plasma was incubated at 37 °C for 10 minutes in an incubator shaker at 150 rpm, and the reactions were initiated by addition of the test compound or positive control (4.0 µL, 3 μM). The spiked plasma samples were incubated at 37 °C. For designated time points, 75 µL aliquots were removed from the incubation mixture and immediately quenched in 150 µL of MeCN/0.1%FA with internal standard (ISTD, 2 µM d 5-7-ethoxy coumarin). […] The supernatant was transferred to an LC-MS vial and analyzed by LC/MS-MS. […]
(§9) LC–MS/MS analysis was performed using an Agilent 1260 Infinity II HPLC, coupled with an Agilent G6460 triple quadrupole mass spectrometer (Agilent Technologies, USA). All the data were acquired employing Agilent 6460 Quantitative Analysis data processing software. […]

[5] = Stability in PBS at room temperature via HPLC (UV); type: physicochemical; settings: phosphate-buffered saline (DPBS)
Procedure, shortened: as §1

[6] = Plasma stability assay via LC-MS/MS, rat plasma; type: in vitro ADME; settings: read-out: t1/2 in rat plasma (Table S19) (converted)
Experimental: as §2, §3, §4, §5, §6, §7, §8, §9

CNCCN(C)C(=O)O/N=C(\C)[C@H]1CC[C@H]2[C@@H]3CCC4=CC(=O)CC[C@]4(C)[C@H]3CC[C@]12C [20a]
half-life at 1 mg/mL ([1]; pH 5, acetate buffer pH 5.0, RT, 1 mg/mL, HPLC 254 nm, read-out: t1/2 in acetate buffer at RT (Tables S5-S8) (converted)): > 168 h | half-life at 1 mg/mL ([1]; pH 5, acetate buffer pH 5.0, rt, HPLC (UV), read-out: Half-life (t½) pH 5.0 rt (converted)): > 168 h | half-life at 1 mg/mL ([1]; pH 5, acetate buffer pH 5.0, rt, read-out: t½: pH 5.0, rt (Table S23) (converted)): > 168 h | PBS, 37 °C %rem. at 2h (Table S23) ([2]; PBS, 2 h): 77% | half-life at 3 µM ([2]; phosphate-buffered saline (DPBS), 3 µM, LC-MS/MS, read-out: t1/2 in PBS at 37 °C (Tables S14-S17) (converted)): 8.07 h | half-life at 3 µM ([2]; phosphate-buffered saline (DPBS), LC-MS/MS, read-out: Half-life (t½) PBS 37°C (converted)): 8.07 h | half-life at 3 µM ([2]; phosphate-buffered saline (DPBS), read-out: PBS, 37 °C t½ (Table S23) (converted)): 8.07 h | half-life at 3 µM ([2]; phosphate-buffered saline (DPBS), read-out: t1/2 (h) PBS, 37 °C (Tables S25, S26) (converted)): 8.07 h | remaining at 2 h, 3 µM ([2]; phosphate-buffered saline (DPBS), pH 7.03, PBS, 2 h, read-out: % Remaining @ 2h, PBS, 37 °C (Tables S25, S26)): 77% | solubility [3]: > 10 mg/mL | half-life at 3 µM [4]: 4.7 h | half-life at 1 mg/mL ([5]; pH 7.03, DPBS pH 7.03, RT, 1 mg/mL, HPLC 254 nm, read-out: t1/2 in PBS buffer at RT (Tables S1-S4) (converted)): 46.9 ± 0.77 h | half-life at 1 mg/mL ([5]; pH 7.03, PBS, rt, HPLC (UV), read-out: Half-life (t½) PBS rt (converted)): 46.9 h | half-life at 1 mg/mL ([5]; pH 7.03, PBS, rt, read-out: t½: PBS, rt (Table S23) (converted)): 46.9 h | half-life at 3 µM [6]: 3.88 h
